Assay results from ChEMBL document CHEMBL4732232, “Protease targeted COVID-19 drug discovery: What we have learned from the past SARS-CoV inhibitors?” (Eur J Med Chem, 2021).
pIC50, pKi: −log10 of the molar value.

Assays:
[1] = Inhibition of SARS CoV HKU3984 His-tagged 3C-like protease using H2N-TSAVLQSGFRKW-COOH as substrate by HPLC method; set-up: species or system Severe acute respiratory syndrome-related coronavirus
[2] = Inhibition of SARS CoV His-tagged 3C-like protease expressed in Escherichia coli BL21 using Dabcyl-KTSAVLQ-SGFRKME-Edans as substrate by Lineweaver-Burk analysis; set-up: species or system Severe acute respiratory syndrome-related coronavirus
[3] = Inhibition of SARS CoV 3C-like protease expressed in Escherichia coli GJ1158 using 2-aminobenzoyl-SVTLQSG-Tyr(NO2)-R as substrate by FRET assay; set-up: species or system Severe acute respiratory syndrome-related coronavirus
[4] = Inhibition of SARS CoV papain-like protease using Arg-Leu-Arg-Gly-Gly-AMC as substrate by fluorescence method; set-up: species or system Severe acute respiratory syndrome-related coronavirus
[5] = Inhibition of SARS CoV 3C-like protease using 12-mer fluorogenic peptide Dabcyl-KNSTLQSGLRKE-Edans as substrate incubated for 60 mins by fluorometric assay; set-up: species or system Severe acute respiratory syndrome-related coronavirus
[6] = Inhibition of SARS CoV 3C-like protease using Abz-SVTLQSG-Tyr(NO2)R as substrate by fluorescence method; set-up: species or system Severe acute respiratory syndrome-related coronavirus
[7] = test system: Severe acute respiratory syndrome-related coronavirus; experiment: Irreversible inhibition of SARS CoV 3C-like protease assessed as ratio of Kinact to Ki using Abz-Ser-Val-Thr-Leu-Gln-Ser-Gly-(NO2)Tyr-Arg as substrate by fluorescence method
[8] = Inhibition of SARS CoV 3C-like protease; set-up: species or system Severe acute respiratory syndrome-related coronavirus
[9] = Competitive inhibition of SARS CoV 3C-like protease using fluorogenic substrate by Lineweaver-Burk plot analysis; set-up: species or system Severe acute respiratory syndrome-related coronavirus
[10] = Inhibition of MERS CoV 3C-like protease using Dabcyl-KTSAVLQSGFRKME-Edans as substrate by fluorometric assay; set-up: species or system Middle East respiratory syndrome-related coronavirus
[11] = Inhibition of SARS CoV 3C-like protease using Dabcyl-KTSAVLQSGFRKME-Edans as substrate by fluorometric assay; set-up: species or system Severe acute respiratory syndrome-related coronavirus

SMILES: CC1=C(C(=O)OCCc2ccccc2)C(c2ccccc2[N+](=O)[O-])C2=C(CCCC2=O)N1 (configuration not stated)
- pIC50 [1]: 5.60

SMILES: CC(C)[C@H](NC(=O)[C@H](C)NC(=O)OCc1ccccc1)C(=O)C[C@@H](Cc1ccccc1)[C@@H](O)[C@H](O)[C@H](Cc1ccccc1)NC(=O)[C@@H](NC(=O)[C@H](C)NC(=O)OCc1ccccc1)C(C)C
- pKi [2]: 6.22

SMILES: Cc1ccc2nc(-c3ccc(N)cc3)sc2c1S(=O)(=O)O
- pIC50 [3]: 5.37

SMILES: O=C(/C=C/CCc1ccc(O)c(O)c1)CCc1ccc(O)c(O)c1 [DEHYDROHIRSUTANONOL]
- pIC50 [4]: 5.39
- pIC50 [5]: 4.44

SMILES: CC(=O)N[C@H](C(=O)N[C@H](C(=O)N[C@@H](CC(C)C)C(=O)N[C@@H](C[C@@H]1CCNC1=O)C(=O)CN1Cc2cccc([N+](=O)[O-])c2C(=O)N1)[C@@H](C)OCc1ccccc1)C(C)C
- pIC50 [6]: 6.22

SMILES: CCOC(=O)C1OC1C(=O)N(CCC(N)=O)NC(=O)[C@H](Cc1ccccc1)NC(=O)[C@H](CC(C)C)NC(=O)OCc1ccccc1 (some centres not stated)
- Ratio [7]: 1900 M⁻¹ s⁻¹

SMILES: O=C(/C=C/c1ccccc1)N[C@@H](CC1CCCCC1)C(=O)N[C@@H](C[C@@H]1CCNC1=O)C(=O)C(=O)NCc1ccccc1
- pIC50 [8]: 6.15

SMILES: CC(C)[C@H](NC(=O)[C@H](C)NC(=O)OCc1ccccc1)C(=O)C[C@@H](Cc1c[nH]c2ccccc12)[C@@H](O)[C@H](O)[C@H](Cc1c[nH]c2ccccc12)NC(=O)[C@@H](NC(=O)[C@H](C)NC(=O)OCc1ccccc1)C(C)C
- pKi [9]: 7.14

SMILES: O=C[C@@H](C[C@H]1CCNC1=O)NC(=O)[C@@H](Cc1ccccc1)NC(=O)/C=C/c1ccc(Cl)cc1F
- pIC50 [10]: 5.33
- pIC50 [11]: 6.70

SMILES: O=C(/C=C/c1ccccc1)N[C@@H](Cc1ccccc1)C(=O)N[C@@H](C[C@@H]1CCNC1=O)C(=O)C(=O)NCc1ccccc1
- pIC50 [8]: 5.71
